Test results from patent publication US20030236218A1, “Aryl phosphate derivatives of d4T with selective activity against adenovirus and HIV” (priority 2002, published 2003).
Values after ≈ are worked out from the molar mass of the structure shown. Read-outs that look alike come from different tables or passages of the source.

Experiments:
[1] = Pharmacokinetic studies in mice, intravenous administration; assay type: in vivo, Balb/c mice; settings: for AUC: read-out: AUC (converted); for Vd: read-out: Vss; for Tmax: read-out: tmax (converted)
Protocol: Female Balb/c mice (6-8 weeks old) from Taconic (Germantown, N.Y.) were housed in a controlled environment (12-hours of light/12-hours of dark, 22±1° C., 60±10% relative humidity), which is fully accredited by the USDA. All rodents were housed in microisolator cages (Lab Products, Inc., NJ) containing autoclaved bedding. The mice were allowed free access to autoclaved pellet food and tap water throughout the study.
Blood samples (˜500 μL) were obtained from the ocular venous plexus by retro-orbital venipuncture at 0, 2, 5, 10, 15, 30, 45, 60, 120, 240 and 360 minutes after intravenous injection.
All collected blood samples were heparinized and centrifuged at 7000×g for 5 minutes to separate the plasma fraction from the whole blood. The plasma samples were then processed immediately using the extraction procedure described above.
Pharmacokinetic modeling and parameter calculations were carried out using the WinNonlin Professional Version 3.0 (Pharsight, Inc., Mountain, Calif.) pharmacokinetics software (Chen et al., Pharm. Res., 16, 1003 (1999); Chen et al., Pharm. Res., 16, 117 (1999); Chen et al., J. Clin. Pharmacol., 39, 1248 (1999); Uckun et al., Clin. Cancer Res., 5, 2954 (1999); and Uckun et al., J. Pharmacol. Exp. Ther., 291, 1301 (1999)). An appropriate model was chosen on the basis of the lowest sum of weighted squared residuals, the lowest Schwartz Criterion (SC), the lowest Akaike's Information Criterion (AIC) value, the lowest standard errors of the fitted parameters, and the dispersion of the residuals. The elimination half-life was estimated by linear regression analysis of the terminal phase of the plasma concentration-time profile. The area under the concentration-time curve (AUC) was calculated according to the linear trapezoidal rule between the first sampling time (0 hours) and the last sampling time plus C/k, where C is the concentration of the last sampling and k is the elimination rate constant. The systemic clearance (CL) was determined by dividing the dose by the AUC. The metabolic clearance of the parent drug, the formation clearance of the metabolite, the clearance elimination of the metabolite, and the distribution clearance of the metabolite were estimated by simultaneous fitting of the concentration of parent drug and metabolites as a function of time curve to pharmacokinetic models (see FIGS. 7A & 8A) specified as a system of differential equations (Gabrielsson & Weiner, Phamacokinetic/Phamacodynamic Data Analysis: Concepts and Applications, Swedish Pharmaceutical Press (1997)).

Solubility = assay type: physicochemical; settings: read-out: Solubility
[2] = tested on: adenovirus strain Type 5, strain adenoid 75; assay: Adenovirus plaque formation assay in skin fibroblast cell line SF; assay type: cell-based, human adenovirus; settings: Skin fibroblast, […], Adenovirus Type 5, 7 days, ± s.e., read-out: IC50, ADV-induced plaque formation
Text: (§1) Virus stocks. The HIV-1 strain used in this study was HTLV-IIIB (Uckun et al., 1998 Antimicro. Agents and Chemother., 42:383-388). The non-HIV viruses included in the present study were the gancyclovir-sensitive cytomegalovirus (CMV) strain AD169 (ATCC VR-538); acyclovir-sensitive herpes simplex virus (HSV) Type I strain HF (ATCC VR-260); acyclovir-sensitive HSV Type II strain G (ATCC VR-734); adenovirus strain Type 5, strain adenoid 75 (ATCC VR-5); enterovirus strain, ECHO 30, strain Bastianni (ATCC VR-322); and respiratory syncytial virus (RSV), strain Long (ATCC VR-26).
Plaque formation assays. Plaque assays were used to examine the activity of the compounds against non-HIV viruses. The skin fibroblast cell line SF (ATCC CRL-2097) was used as a target for AD169, Adenovirus Type 5. […] cell line (ATCC CCL-81) was used as a target for HSV HF and G. The HEP-2 cell line (ATCC CCL-23) was used as a target for the RSV strain Long. These cell lines were cultured at 1×10^5 cells/well in 24-well (all but ECHO 30-infected SF) or 6-well (ECHO 30-infected SF) tissue culture plates with 0.9% methylcellulose or 0.4% SeaPlaque agarose semisolid support. Minimum Essential Medium (MEM) with Earle's salts (Gibco), L-glutamine, non-essential amino acids, 2% heat-inactivated fetal bovine serum, 1% penicillin/streptomycin, and 0.05% gentamicin served as the culture medium. The incubation times were 3 days for HF, G, ECHO 30, and Long; and 7 days for AD169 and Adenovirus Type 5. Plaque counting was performed with a 20X dissecting microscope for AD169, Type 5, ECHO 30, and RSV Long, and with a light box for HF and G. The fixative agent was crystal violet for all viruses, except for the CMV strain AD169 for which methylene blue was used. Percent inhibition of plaque formation was calculated by comparing the plaque numbers from the test substance-treated infected cells with the plaque numbers from untreated infected cells (i.e., virus controls). The IC50 values were determined using the Statview statistics program (SAS Institute, Inc., Cary, N.C.).
Statistical analysis. Each drug was tested at 6-7 different concentrations ranging from 0.0001 μM to 100 μM. Each assay was set up in triplicate wells and repeated 1-3 times. An IC50 value was calculated from each set of triplicate wells using nonlinear regression modeling of the exponential form of the linearized equation (Statview, SAS Institute, Inc., Cary, N.C.). […] The IC50 values obtained were correlated to the log transformed hydrolysis rate constants by fitting a linear model (JMP Software, SAS Institute Inc., Cary, N.C.). P-values less than 0.05 were deemed significant.
The skin fibroblast cell line SF (ATCC CRL-2097) was used as a target for AD169, Adenovirus Type 5, and ECHO 30; the VERO cell line (ATCC CCL-81) was used as a target for HF and G; and the HEP-2 cell line (ATCC CCL-23) was used as target for the RSV strain Long. Results are expressed as the average IC50 values in μM. Stavudine (STV) was included as a control.

HSV Type II strain G = assay: HSV-2 plaque formation assay in VERO cells; assay type: cell-based, herpes simplex virus Type II; settings: Human alphaherpesvirus 2, HSV-2, Strain G
Text: as §1
(§2) Plaque formation assays. Plaque assays were used to examine the activity of the compounds against non-HIV viruses. The skin fibroblast cell line SF (ATCC CRL-2097) was used as a target for AD169, Adenovirus Type 5. […] cell line (ATCC CCL-81) was used as a target for HSV HF and G. The HEP-2 cell line (ATCC CCL-23) was used as a target for the RSV strain Long. These cell lines were cultured at 1×10^5 cells/well in 24-well (all but ECHO 30-infected SF) or 6-well (ECHO 30-infected SF) tissue culture plates with 0.9% methylcellulose or 0.4% SeaPlaque agarose semisolid support. […] Percent inhibition of plaque formation was calculated by comparing the plaque numbers from the test substance-treated infected cells with the plaque numbers from untreated infected cells (i.e., virus controls). The IC50 values were determined using the Statview statistics program (SAS Institute, Inc., Cary, N.C.).
(§3) Statistical analysis. […] An IC50 value was calculated from each set of triplicate wells using nonlinear regression modeling of the exponential form of the linearized equation (Statview, SAS Institute, Inc., Cary, N.C.). […]
(§4) The skin fibroblast cell line SF (ATCC CRL-2097) was used as a target for AD169, Adenovirus Type 5, and ECHO 30; the VERO cell line (ATCC CCL-81) was used as a target for HF and G; and the HEP-2 cell line (ATCC CCL-23) was used as target for the RSV strain Long. Results are expressed as the average IC50 values in μM. […]

[3] = tested on: respiratory syncytial virus (RSV), strain Long; assay: RSV plaque formation assay in HEP-2 cells; assay type: cell-based; settings: human respiratory syncytial virus; RSV, Strain Long; HEP-2 cells; plaque assay; read-out: IC50
Text: as §1, §2, §3, §4

[4] = female, Balb/c, mouse, in vivo, iv
[5] = female, Balb/c, mouse, in vivo, iv, 40 mg/kg, after i.v. 40 mg/kg d4T, estimate from composite curve of pooled data
[6] = female, Balb/c, mouse, in vivo, iv, 40 mg/kg, after i.v. 40 mg/kg d4T, mean ± S.E.M
[7] = female, Balb/c, mouse, in vivo, iv, 75 mg/kg, plasma analyte = label, after i.v. 75 mg/kg Ala-d4T-MP, estimate from composite curve of pooled data
[8] = female, Balb/c, mouse, in vivo, iv, 75 mg/kg, plasma analyte = label, after i.v. 75 mg/kg Ala-d4T-MP, mean ± S.E.M
[9] = female, Balb/c, mouse, in vivo, iv, 100 mg/kg, plasma analyte = label, after i.v. 100 mg/kg compound 113, estimate from composite curve of pooled data
[10] = female, Balb/c, mouse, in vivo, iv, 100 mg/kg, plasma analyte = label, after i.v. 100 mg/kg compound 113, mean ± S.E.M

For `Cc1cn([C@H]2C=C[C@@H](CO)O2)c(=O)[nH]c1=O` [d4T, 2′, 3′-Didehydro-3′-deoxy thymidine, reference compound], the “CLme (elimination of d4T derived from Ala-d4T-MP)” value ([1]; after i.v. Ala-d4T-MP, model fit, C.V. of modeling in parentheses) was 88.4 (13.0%) ml/min/kg, the “CLme2 (elimination of d4T from the body)” value ([1]; after i.v. compound 113, model fit, C.V. of modeling in parentheses) was 47.1 (74.1%) ml/min/kg and the “CLme2 (elimination of d4T from the body)” value [1, 4] was 62.0 mL/min/kg. The “CLme (elimination of d4T derived from Ala-d4T-MP)” value [1, 4] was 88.4 mL/min/kg, the “fraction of parent converted to the metabolite” value [1, 4] was 15% and the “fraction of parent converted to the metabolite (fm)” value [1, 4] was 24%. It also gave a Cmax [1, 5] of 280 µM, a clearance [1, 5] of 15 mL/min/kg and a half-life [1, 5] of 30.3 min. The AUC [1, 5] was 204 µM·h, the Vd [1, 5] was 0.658 L/kg and the Cmax [1, 6] was 319 µM. It also gave a clearance [1, 6] of 15.2 mL/min/kg, a half-life [1, 6] of 26.6 min and a Vd [1, 6] of 0.582 L/kg. For the same molecule, the Cmax [1, 7] was 35.2 µM, the half-life [1, 7] was 34 min and the AUC [1, 7] was 31.5 µM·h. For the same molecule, the Tmax [1, 7] was 4.4 min, the Cmax [1, 8] was 35.9 µM and the half-life [1, 8] was 32.4 min. The AUC [1, 8] was 30.3 µM·h, the Tmax [1, 8] was 5 min and the Cmax [1, 9] was 15.7 µM. For the same molecule, the half-life [1, 9] was 115 min, the AUC [1, 9] was 48.6 µM·h and the Tmax [1, 9] was 18.7 min. It also gave a half-life [1, 10] of 116 min, an AUC [1, 10] of 47.6 µM·h and a Tmax [1, 10] of 17.4 min. The AUC ([1]; female, Balb/c, mouse, plasma, iv, after i.v. 40 mg/kg d4T, mean ± S.E.M) was 203 µM·h, the Solubility (Solubility) was 83 mg/mL (≈ 370 mM) and the IC50 [2] was 12.3 ± 0.3 µM. For the same molecule, the IC50 (HSV Type II strain G) was greater than 100 µM and the IC50 [3] was greater than 100 µM.
